Test results published in the Deep4Chem optical property database.

Test: solvent given as SMILES

Compound CCCCCCCN1C(=CC2=C([O-])C(=CC3=[N+](CCCCCCC)c4ccccc4C3(C)C)C2=C(C#N)C#N)Sc2ccccc21 has an absorption maximum (in C1COCCO1) of 694 nm, an absorption maximum (in CCO) of 681 nm and an absorption maximum (in CN(C)C=O) of 681 nm. For the same compound, the absorption maximum (in ClC(Cl)Cl) was 690 nm.
For CN(C)c1ccc(C2=Nc3scc(-c4ccc([N+](=O)[O-])cc4)[n+]3[B-](F)(F)O2)cc1, the absorption maximum (in C1CCOC1) was 412 nm, the absorption maximum (in CC#N) was 411 nm and the absorption maximum (in Cc1ccccc1) was 415 nm. For the same compound, the absorption maximum (in ClCCl) was 417 nm.
Compound Cc1cccc(C)c1-c1cc2c(C)c3c4cc5nc6cc7c(cc6nc5cc4c3c(C)c2cc1-c1c(C)cccc1C)c1c(C)c2cc(-c3c(C)cccc3C)c(-c3c(C)cccc3C)cc2c(C)c71 has an absorption maximum (in ClC(Cl)Cl) of 503 nm.
CC(C)(C)c1ccc(-c2ccc3c(-c4ccc(C(C)(C)C)c5ccccc45)cc4c5cc(-c6ccc(C(C)(C)C)c7ccccc67)ccc5c(-c5ccc(C(C)(C)C)c6ccccc56)cc4c3c2)c2ccccc12 showed an absorption maximum (in ClCCl) of 300 nm.
In the case of CC(C)(C)c1cc2ccc3c(N(c4ccccc4)c4ccccc4)cc(N(c4ccccc4)c4ccccc4)c4ccc(c1)c2c34, the absorption maximum (in ClCCl) is reported as 414 nm.
Compound COc1c2ccccc2c(OC)c2c1c1cc(F)ccc1n2C has an absorption maximum (in C1CCCCC1) of 415 nm, an absorption maximum (in CC#N) of 417 nm and an absorption maximum (in CO) of 416 nm. It also gave an absorption maximum (in ClCCl) of 419 nm.
In the case of CC1(C)CC(=O)c2c(F)c(F)c(F)c(F)c2N1, the absorption maximum (in CC#N) is reported as 360 nm.
O=C(O)C1=C(C(=O)O)C2=C[C@H]3c4ccccc4[C@]2(S1)c1ccccc13 showed an absorption maximum (in ClCCl) of 410 nm.
Cc1cc(C)c(B(c2cc3ccc4cccc5ccc(c2)c3c45)c2c(C)cc(C)cc2C)c(C)c1 showed an absorption maximum (in Cc1ccccc1) of 413 nm.
In the case of O=S(=O)(c1ccc(-c2ccc3c(c2)c2ccccc2n3-c2ccccc2)cc1)c1ccc(-c2ccc3c(c2)c2ccccc2n3-c2ccccc2)cc1, the absorption maximum (in Cc1ccccc1) is reported as 332 nm.
In the case of CC(C)(C)c1ccc2c(c1)c1cc(C(C)(C)C)ccc1n2-c1ccccc1-c1nc(-c2ccccc2-n2c3ccc(C(C)(C)C)cc3c3cc(C(C)(C)C)ccc32)nc(-c2ccccc2P(=O)(c2ccccc2)c2ccccc2)n1, the absorption maximum (in C1CCOC1) is reported as 343.17 nm, the absorption maximum (in CC#N) is reported as 340.7 nm and the absorption maximum (in CC(C)=O) is reported as 343.17 nm. For the same compound, the absorption maximum (in CN(C)C=O) was 343.17 nm, the absorption maximum (in Cc1ccccc1) was 340.7 nm and the absorption maximum (in ClC(Cl)Cl) was 343.17 nm. The absorption maximum (in ClCCl) was 343.17 nm.
Compound CN1C(=O)c2cccc3c(-n4c5ccccc5c5ccccc54)ccc(c23)C1=O has an absorption maximum (in C1CCOC1) of 408 nm, an absorption maximum (in CCCCCC) of 402 nm and an absorption maximum (in ClC(Cl)Cl) of 404 nm. The absorption maximum (in ClCCl) was 414 nm.
C#Cc1cccc2ccccc12 showed an absorption maximum (in C1CCCCC1) of 310 nm, an absorption maximum (in CC#N) of 306 nm and an absorption maximum (in CO) of 309 nm. For the same compound, the absorption maximum (in ClCCl) was 312 nm.
Compound CC1(C)C(/C=C/C=C/c2cc3ccc(O)cc3oc2=O)=[N+](CCCS(=O)(=O)[O-])c2ccc(S(=O)(=O)O)cc21 has an absorption maximum (in CCO) of 508 nm, an absorption maximum (in CS(C)=O) of 494 nm and an absorption maximum (in O) of 592 nm.
Work on COC(=O)CCC(NC(=O)CCNc1cccc2ccccc12)C(=O)OC (stereo unspecified) yielded an absorption maximum (in CCO) of 330 nm.
CCCCOc1c(-c2c(OCCCC)c3oc4cc5ccccc5cc4c3c3ccccc23)c2ccccc2c2c1oc1cc3ccccc3cc12 showed an absorption maximum (in C1CCOC1) of 366 nm.
CCN(CC)c1ccc2c(c1)oc(=O)c1c(C)nc3c(c(-c4ccccc4)nn3C)c12 gave an absorption maximum (in ClCCl) of 408 nm.
For Oc1ccc(/N=C/c2ccccc2Oc2ccccc2)cc1, the absorption maximum (in C1CCCCC1) was 348 nm, the absorption maximum (in C1COCCO1) was 341 nm and the absorption maximum (in CC#N) was 350 nm. It also gave an absorption maximum (in CC(C)=O) of 342 nm, an absorption maximum (in CC(C)CO) of 344 nm and an absorption maximum (in CC(C)O) of 344 nm. For the same compound, the absorption maximum (in CCCCC) was 341 nm, the absorption maximum (in CCCCCC) was 346 nm and the absorption maximum (in CCCCO) was 346 nm. For the same compound, the absorption maximum (in CCCCOC(C)=O) was 346 nm, the absorption maximum (in CCCO) was 345 nm and the absorption maximum (in CCOC(C)=O) was 340 nm. For the same compound, the absorption maximum (in CCOCC) was 345 nm, the absorption maximum (in CN(C)C=O) was 345 nm and the absorption maximum (in CO) was 342 nm. For the same compound, the absorption maximum (in CS(C)=O) was 348 nm, the absorption maximum (in Cc1ccccc1) was 342 nm and the absorption maximum (in Cc1ccccc1C) was 382 nm. It also gave an absorption maximum (in ClC(Cl)Cl) of 343 nm, an absorption maximum (in N#Cc1ccccc1) of 341 nm and an absorption maximum (in c1ccccc1) of 345 nm.
